Laboratory results: patent US20090005395A1 (Solvay Pharmaceuticals, B.V., priority 2007, published 2009)
Read-outs that look alike come from different tables or passages of the source.

Experiments:
[1] = biological target: PDE-V (Homo sapiens, UniProt O76074); details: cited from earlier work
[2] = in vivo; cited from earlier work
[3] = Plasma and brain concentrations of sildenafil and its N-oxide after i.v. or p.o. administration to mice (LC-MS/MS); type: in vivo, male NMRI mice; details: sildenafil administered i.v. or p.o.
Protocol: Sildenafil and its N-oxide were analyzed in mouse plasma and brain samples using a generic bioanalytical method comprising protein precipitation and HPLC with MS/MS detection.
Sample preparation: Proteins in 100 μl plasma were precipitated with acetonitrile, and 5 μl samples of the obtained solution were analyzed. Complete brains were homogenized and centrifuged, and 10 μl samples of the supernatant were analyzed.
Liquid Chromatography-Tandem Mass Spectrometry (LC-MS/MS) was performed using a Sciex API4000 LC-MS/MS. Quantification of the samples was done using extracted calibration samples, treated the same as the study samples in the range of 1-5000 ng/ml and 5.0-5000 ng/brain for plasma and brains samples, respectively. Compound peak area was used for quantification. The calibration curves were fitted to the model y=A+Bx+Cx^2 (y is the peak area of the analyte, x is the nominal calibration level in ng/ml (plasma) or ng/g (brain), A is the intercept, B is the slope and C is the description of the curvature). 1/x^2 weighing was used. LC-MS/MS system performance was monitored using a reference solution injected at standard intervals. The method use for testing was not validated in detail, therefore the reported concentrations were good estimations. The Lower Limit Of Quantification (LLOQ) was established at 1.00 ng/ml and 5.00 ng/brain, for plasma and brain samples, respectively. […]

[4] = Plasma pharmacokinetics of sildenafil and its N-oxide; type: in vivo; details: male, NMRI, mouse, mice, plasma; for AUC: Tend = 7 hrs, read-out: AUC0→end; for AUC(0-inf): Tend = ∞
Protocol: Liquid Chromatography-Tandem Mass Spectrometry (LC-MS/MS) was performed using a Sciex API4000 LC-MS/MS. […] Compound peak area was used for quantification. The calibration curves were fitted to the model y=A+Bx+Cx^2 (y is the peak area of the analyte, x is the nominal calibration level in ng/ml (plasma) or ng/g (brain), A is the intercept, B is the slope and C is the description of the curvature). 1/x^2 weighing was used. LC-MS/MS system performance was monitored using a reference solution injected at standard intervals. […] The Lower Limit Of Quantification (LLOQ) was established at 1.00 ng/ml and 5.00 ng/brain, for plasma and brain samples, respectively. Reversed phase HPLC was performed using gradient elution by a Hypersil BDS C18 100×4.6 mm 3 μm analytical column, with a temperature of 45° C. and a flow of 1.00 ml/min: […]

[5] = biological target: CYP3A4 (Homo sapiens, UniProt P08684); details: cited from earlier work
[6] = biological target: CYP2C9 (Homo sapiens, UniProt P11712); details: cited from earlier work
[7] = tested on: PDE-I; assay: In vitro inhibition of phosphodiesterases (CEREP): PDE-I; details: bovine brain
[8] = tested on: PDE-IV; assay: In vitro inhibition of phosphodiesterases (CEREP): PDE-IV; details: human U-937 monocytes

CYP3A4, sequence (P08684 whole entry): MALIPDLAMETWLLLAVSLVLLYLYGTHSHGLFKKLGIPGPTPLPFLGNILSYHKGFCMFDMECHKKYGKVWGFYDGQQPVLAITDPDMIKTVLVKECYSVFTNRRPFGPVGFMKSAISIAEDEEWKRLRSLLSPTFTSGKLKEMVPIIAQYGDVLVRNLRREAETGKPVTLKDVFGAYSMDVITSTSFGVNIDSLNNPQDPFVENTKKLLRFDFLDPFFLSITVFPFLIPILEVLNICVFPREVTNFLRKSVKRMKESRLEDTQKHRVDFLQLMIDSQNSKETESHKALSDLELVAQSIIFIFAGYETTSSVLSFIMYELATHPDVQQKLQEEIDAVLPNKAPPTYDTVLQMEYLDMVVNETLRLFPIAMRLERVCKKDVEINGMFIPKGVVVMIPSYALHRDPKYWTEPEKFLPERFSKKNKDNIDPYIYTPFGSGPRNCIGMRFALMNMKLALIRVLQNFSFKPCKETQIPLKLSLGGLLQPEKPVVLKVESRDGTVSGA
CYP2C9, sequence (P11712 whole entry): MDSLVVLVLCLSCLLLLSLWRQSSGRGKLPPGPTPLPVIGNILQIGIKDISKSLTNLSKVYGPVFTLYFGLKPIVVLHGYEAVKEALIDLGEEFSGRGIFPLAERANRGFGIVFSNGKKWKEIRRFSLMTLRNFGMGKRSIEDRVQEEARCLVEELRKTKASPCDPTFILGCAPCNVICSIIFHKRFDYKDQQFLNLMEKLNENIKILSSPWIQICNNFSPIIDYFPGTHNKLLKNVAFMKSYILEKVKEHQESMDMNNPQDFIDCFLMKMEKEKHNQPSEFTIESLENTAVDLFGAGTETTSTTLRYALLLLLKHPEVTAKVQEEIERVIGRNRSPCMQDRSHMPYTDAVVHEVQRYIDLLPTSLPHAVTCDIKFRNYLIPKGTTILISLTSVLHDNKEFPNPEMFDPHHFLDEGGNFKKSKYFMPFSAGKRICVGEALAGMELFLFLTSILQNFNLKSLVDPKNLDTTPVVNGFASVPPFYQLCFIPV

In the case of `CCCc1nn(C)c2c(=O)[nH]c(-c3cc(S(=O)(=O)N4CCNCC4)ccc3OCC)nc12` [UK 103,320, 1-[[3-(6,7-dihydro-1-methyl-7-oxo-3-propyl-1H-pyrazolo[4,3-d]pyrimidin-5-yl)-4-ethoxy-phenyl]sulfonyl]-piperazine], the “in vitro potency for PDE-V relative to the parent drug” value ([1]; of sildenafil) is given as “approximately 50%”, the “potency relative to sildenafil” value ([1]; reported) is given as “about half” and the “Plasma concentrations of the metabolite relative to those seen for sildenafil” value [2] is given as “approximately 40%”.
With `CCCc1nn(C)c2c(=O)[nH]c(-c3cc(S(=O)(=O)N4CCN(C)CC4)ccc3OCC)nc12` [Sildenafil, 1-[4-ethoxy-3-(6,7-dihydro-1-methyl-7-oxo-3-propyl-1H-pyrazolo[4,3-d]pyrimidin-5-yl)phenyl-sulfonyl]-4-methylpiperazine, reference compound] the “N-oxide in the brain” value [3] was “no trace can be found at all”, the Tmax ([4]; iv, i.v. 1 mg/kg) was 0 h and the half-life ([4]; iv, i.v. 1 mg/kg) was 1.4 h. It also gave an AUC ([4]; iv, i.v. 1 mg/kg) of 232 ng·h/mL, an AUC(0-inf) ([4]; iv, i.v. 1 mg/kg) of 232 ng·h/mL and a Cmax ([4]; iv, i.v. 1 mg/kg, extrapolated to T0 (time zero), read-out: Cmax (C0)) of 538 ng/mL. The Vd ([4]; iv, i.v. 1 mg/kg) was 8.9 L/kg, the clearance ([4]; iv, i.v. 1 mg/kg) was 71.8 mL/min/kg and the bioavailability ([4]; po, 10 mg/kg, i.v.) was 28.9%. It also gave a Tmax ([4]; po, p.o. 10 mg/kg) of 0.2 h, a half-life ([4]; po, p.o. 10 mg/kg) of 1.1 h and an AUC ([4]; po, p.o. 10 mg/kg) of 661 ng·h/mL. The AUC(0-inf) ([4]; po, p.o. 10 mg/kg) was 670 ng·h/mL, the Cmax ([4]; po, p.o. 10 mg/kg, read-out: Cmax) was 533 ng/mL and the “more potent on PDE-V than on PDE-1” value ([1]; in vitro, versus PDE-1) was > 80 fold. The “more potent on PDE-V than on PDE-II” value ([1]; in vitro, versus PDE-II) was > 700 fold, the “more potent on PDE-V than on PDE-IV” value ([1]; in vitro, versus PDE-IV) was > 700 fold and the “more potent on PDE-V than on PDE-IX” value ([1]; in vitro, versus PDE-IX) was > 700 fold. For the same compound, the “more potent on PDE-V than on PDE-VI” value ([1]; in vitro, versus PDE-VI) was “about 10 fold”, the “more potent on PDE-V than on PDE-VII” value ([1]; in vitro, versus PDE-VII) was > 700 fold and the “more potent on PDE-V than on PDE-VIII” value ([1]; in vitro, versus PDE-VIII) was > 700 fold. The “more potent on PDE-V than on PDE-X” value ([1]; in vitro, versus PDE-X) was > 700 fold, the “more potent on PDE-V than on PDE-XI” value ([1]; in vitro, versus PDE-XI) was > 700 fold and the “clearance route by hepatic microsomal iso-enzyme CYP3A4” value [5] was “major route”. The “clearance route by hepatic microsomal iso-enzyme CYP2C9” value [6] was “minor route”, the “pIC50 PDE-I” value [7] was 5.0 and the “pIC50 PDE-IV” value [8] was 4.8.
